Read-outs that look alike come from different tables or passages of the source.
Columns and labels:
Experiment in all cases: Kinase selectivity, scanMAX Kinase assay panel (DiscoverX), % control at 1 uM
Assay type in all cases: binding
[1] = biological target: T1, scanMAX Kinase assay panel (Homo sapiens, UniProt Q96NX5); conditions: CAMK1G; 1 uM; read-out: Percent Control (%)
T1 construct: purchased DiscoverX
How it was run: (§1)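 Single-point screen at 1 uM compound in DMSO. Lower % control means stronger inhibition, with the cutoff for activity set at <35%.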

[2] = biological target: T2, scanMAX Kinase assay panel (Homo sapiens, UniProt P52333); conditions: JAK3 (JH1domain-catalytic); 1 uM; read-out: Percent Control (%)
T2 construct: purchased DiscoverX
T2 sequence (P52333 1-1124): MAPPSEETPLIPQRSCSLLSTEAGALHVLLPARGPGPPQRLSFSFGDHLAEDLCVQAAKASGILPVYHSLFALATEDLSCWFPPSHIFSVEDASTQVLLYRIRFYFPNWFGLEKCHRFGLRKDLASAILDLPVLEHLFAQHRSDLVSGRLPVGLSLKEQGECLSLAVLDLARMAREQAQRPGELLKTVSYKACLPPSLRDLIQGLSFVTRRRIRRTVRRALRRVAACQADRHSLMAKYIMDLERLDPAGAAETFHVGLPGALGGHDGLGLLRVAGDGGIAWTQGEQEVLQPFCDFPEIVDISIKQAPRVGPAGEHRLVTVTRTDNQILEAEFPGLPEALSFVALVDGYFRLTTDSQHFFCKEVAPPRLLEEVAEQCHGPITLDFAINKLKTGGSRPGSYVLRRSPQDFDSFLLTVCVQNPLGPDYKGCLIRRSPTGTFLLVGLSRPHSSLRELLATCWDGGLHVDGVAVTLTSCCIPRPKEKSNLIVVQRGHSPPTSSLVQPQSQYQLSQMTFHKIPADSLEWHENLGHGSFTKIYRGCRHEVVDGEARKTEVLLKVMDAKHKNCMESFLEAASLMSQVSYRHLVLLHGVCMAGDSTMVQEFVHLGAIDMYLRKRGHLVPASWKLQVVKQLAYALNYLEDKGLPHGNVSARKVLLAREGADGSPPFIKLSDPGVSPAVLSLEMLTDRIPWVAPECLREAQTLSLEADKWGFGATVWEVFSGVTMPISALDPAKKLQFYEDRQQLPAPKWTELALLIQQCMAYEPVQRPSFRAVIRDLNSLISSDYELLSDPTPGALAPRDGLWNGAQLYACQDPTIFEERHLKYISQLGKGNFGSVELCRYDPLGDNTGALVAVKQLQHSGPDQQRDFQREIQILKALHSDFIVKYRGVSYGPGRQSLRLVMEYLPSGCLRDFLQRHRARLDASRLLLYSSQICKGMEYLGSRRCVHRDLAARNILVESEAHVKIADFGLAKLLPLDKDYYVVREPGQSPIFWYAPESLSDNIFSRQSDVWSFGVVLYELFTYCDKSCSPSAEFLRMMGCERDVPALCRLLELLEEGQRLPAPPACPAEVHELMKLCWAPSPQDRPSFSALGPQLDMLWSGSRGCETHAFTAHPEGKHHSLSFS
How it was run: as §1

[3] = biological target: T3, scanMAX Kinase assay panel (Homo sapiens, UniProt P42680); conditions: TEC; 1 uM; read-out: Percent Control (%)
T3 construct: purchased DiscoverX
T3 sequence (P42680 1-631): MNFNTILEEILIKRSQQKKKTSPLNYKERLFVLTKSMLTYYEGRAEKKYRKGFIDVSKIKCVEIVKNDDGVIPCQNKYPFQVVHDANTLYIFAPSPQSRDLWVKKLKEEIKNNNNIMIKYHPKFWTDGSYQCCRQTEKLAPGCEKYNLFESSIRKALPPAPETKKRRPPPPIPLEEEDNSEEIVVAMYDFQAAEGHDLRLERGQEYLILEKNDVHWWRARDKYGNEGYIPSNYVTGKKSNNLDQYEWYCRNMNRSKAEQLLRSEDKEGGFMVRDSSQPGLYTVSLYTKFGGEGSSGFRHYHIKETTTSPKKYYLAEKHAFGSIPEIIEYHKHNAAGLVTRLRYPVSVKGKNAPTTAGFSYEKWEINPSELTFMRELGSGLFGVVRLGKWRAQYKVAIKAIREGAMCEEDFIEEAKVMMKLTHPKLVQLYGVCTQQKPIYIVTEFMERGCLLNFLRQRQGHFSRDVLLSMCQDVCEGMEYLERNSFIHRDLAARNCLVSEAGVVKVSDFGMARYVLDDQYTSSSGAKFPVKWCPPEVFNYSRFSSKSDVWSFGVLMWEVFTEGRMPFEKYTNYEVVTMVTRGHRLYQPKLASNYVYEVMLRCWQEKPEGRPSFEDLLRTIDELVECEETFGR
How it was run: as §1

[4] = biological target: T4, scanMAX Kinase assay panel (Homo sapiens, UniProt P07333); conditions: 1 uM, read-out: Percent Control (%)
T4 construct: purchased DiscoverX
How it was run: as §1

[5] = biological target: T5, scanMAX Kinase assay panel (Homo sapiens, UniProt P30291); conditions: WEE1; 1 uM; read-out: Percent Control (%)
T5 construct: purchased DiscoverX
How it was run: as §1

[6] = biological target: T6, scanMAX Kinase assay panel (Homo sapiens, UniProt Q9Y2I7); conditions: PIKFYVE; 1 uM; read-out: Percent Control (%)
T6 construct: purchased DiscoverX
How it was run: as §1

[7] = biological target: T7, scanMAX Kinase assay panel (Homo sapiens, UniProt P21127); conditions: CDC2L1; 1 uM; read-out: Percent Control (%)
T7 construct: purchased DiscoverX
How it was run: as §1

T4 sequence (P07333 20-972): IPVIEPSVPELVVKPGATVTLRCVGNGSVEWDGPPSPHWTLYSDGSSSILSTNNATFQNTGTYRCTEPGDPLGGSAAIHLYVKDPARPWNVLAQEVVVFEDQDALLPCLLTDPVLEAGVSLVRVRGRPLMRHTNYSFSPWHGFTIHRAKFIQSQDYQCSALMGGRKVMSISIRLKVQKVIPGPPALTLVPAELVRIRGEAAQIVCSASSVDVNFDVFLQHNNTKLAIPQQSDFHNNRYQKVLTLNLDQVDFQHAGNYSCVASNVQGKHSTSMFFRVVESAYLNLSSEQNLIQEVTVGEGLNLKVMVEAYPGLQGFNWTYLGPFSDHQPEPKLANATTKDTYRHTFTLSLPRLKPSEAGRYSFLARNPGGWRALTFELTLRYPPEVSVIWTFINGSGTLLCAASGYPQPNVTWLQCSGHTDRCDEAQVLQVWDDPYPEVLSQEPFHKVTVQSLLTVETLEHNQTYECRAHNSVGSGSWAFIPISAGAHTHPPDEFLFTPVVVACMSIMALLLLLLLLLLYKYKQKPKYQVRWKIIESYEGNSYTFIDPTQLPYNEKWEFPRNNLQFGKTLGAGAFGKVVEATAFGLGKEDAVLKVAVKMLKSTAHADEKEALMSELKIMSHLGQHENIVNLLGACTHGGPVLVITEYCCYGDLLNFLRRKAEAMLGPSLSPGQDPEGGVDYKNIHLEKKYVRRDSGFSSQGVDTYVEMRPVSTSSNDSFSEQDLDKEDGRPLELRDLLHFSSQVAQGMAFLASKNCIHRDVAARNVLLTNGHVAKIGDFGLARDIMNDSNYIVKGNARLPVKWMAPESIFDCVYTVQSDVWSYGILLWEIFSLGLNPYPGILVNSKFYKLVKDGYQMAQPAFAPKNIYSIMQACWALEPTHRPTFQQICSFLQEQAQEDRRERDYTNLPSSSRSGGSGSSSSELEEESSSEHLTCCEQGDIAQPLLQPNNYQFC
T1 sequence (Q96NX5 whole entry): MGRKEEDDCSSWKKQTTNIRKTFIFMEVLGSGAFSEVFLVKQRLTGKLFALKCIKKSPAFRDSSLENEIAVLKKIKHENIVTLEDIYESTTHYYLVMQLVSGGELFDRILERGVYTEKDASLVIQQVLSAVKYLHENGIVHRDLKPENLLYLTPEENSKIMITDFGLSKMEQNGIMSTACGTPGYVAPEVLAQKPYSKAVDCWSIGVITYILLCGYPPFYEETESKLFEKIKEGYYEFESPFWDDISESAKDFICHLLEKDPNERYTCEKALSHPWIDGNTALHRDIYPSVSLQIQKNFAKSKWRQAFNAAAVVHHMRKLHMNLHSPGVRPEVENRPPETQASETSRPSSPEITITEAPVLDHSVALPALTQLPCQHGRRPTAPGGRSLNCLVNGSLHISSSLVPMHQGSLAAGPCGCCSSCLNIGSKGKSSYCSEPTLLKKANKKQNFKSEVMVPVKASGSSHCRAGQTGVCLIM
T5 sequence (P30291 whole entry): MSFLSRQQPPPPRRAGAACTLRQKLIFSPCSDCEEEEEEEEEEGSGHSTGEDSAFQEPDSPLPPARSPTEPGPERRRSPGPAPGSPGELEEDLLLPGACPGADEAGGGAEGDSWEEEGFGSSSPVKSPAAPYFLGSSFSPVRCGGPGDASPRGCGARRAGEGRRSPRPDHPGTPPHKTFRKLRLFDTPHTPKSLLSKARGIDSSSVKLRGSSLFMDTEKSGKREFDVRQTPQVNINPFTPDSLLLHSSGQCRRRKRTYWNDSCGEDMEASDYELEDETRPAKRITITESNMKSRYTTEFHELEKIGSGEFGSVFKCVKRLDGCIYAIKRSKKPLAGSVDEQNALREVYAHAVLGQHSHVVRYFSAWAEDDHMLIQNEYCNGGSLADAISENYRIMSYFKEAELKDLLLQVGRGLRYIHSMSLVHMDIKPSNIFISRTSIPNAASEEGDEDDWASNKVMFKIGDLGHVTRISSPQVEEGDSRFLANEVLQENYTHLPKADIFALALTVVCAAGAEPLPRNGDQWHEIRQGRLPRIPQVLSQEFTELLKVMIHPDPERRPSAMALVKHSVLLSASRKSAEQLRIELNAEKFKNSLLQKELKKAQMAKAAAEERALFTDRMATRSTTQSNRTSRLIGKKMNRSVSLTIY
T6 sequence (Q9Y2I7 whole entry): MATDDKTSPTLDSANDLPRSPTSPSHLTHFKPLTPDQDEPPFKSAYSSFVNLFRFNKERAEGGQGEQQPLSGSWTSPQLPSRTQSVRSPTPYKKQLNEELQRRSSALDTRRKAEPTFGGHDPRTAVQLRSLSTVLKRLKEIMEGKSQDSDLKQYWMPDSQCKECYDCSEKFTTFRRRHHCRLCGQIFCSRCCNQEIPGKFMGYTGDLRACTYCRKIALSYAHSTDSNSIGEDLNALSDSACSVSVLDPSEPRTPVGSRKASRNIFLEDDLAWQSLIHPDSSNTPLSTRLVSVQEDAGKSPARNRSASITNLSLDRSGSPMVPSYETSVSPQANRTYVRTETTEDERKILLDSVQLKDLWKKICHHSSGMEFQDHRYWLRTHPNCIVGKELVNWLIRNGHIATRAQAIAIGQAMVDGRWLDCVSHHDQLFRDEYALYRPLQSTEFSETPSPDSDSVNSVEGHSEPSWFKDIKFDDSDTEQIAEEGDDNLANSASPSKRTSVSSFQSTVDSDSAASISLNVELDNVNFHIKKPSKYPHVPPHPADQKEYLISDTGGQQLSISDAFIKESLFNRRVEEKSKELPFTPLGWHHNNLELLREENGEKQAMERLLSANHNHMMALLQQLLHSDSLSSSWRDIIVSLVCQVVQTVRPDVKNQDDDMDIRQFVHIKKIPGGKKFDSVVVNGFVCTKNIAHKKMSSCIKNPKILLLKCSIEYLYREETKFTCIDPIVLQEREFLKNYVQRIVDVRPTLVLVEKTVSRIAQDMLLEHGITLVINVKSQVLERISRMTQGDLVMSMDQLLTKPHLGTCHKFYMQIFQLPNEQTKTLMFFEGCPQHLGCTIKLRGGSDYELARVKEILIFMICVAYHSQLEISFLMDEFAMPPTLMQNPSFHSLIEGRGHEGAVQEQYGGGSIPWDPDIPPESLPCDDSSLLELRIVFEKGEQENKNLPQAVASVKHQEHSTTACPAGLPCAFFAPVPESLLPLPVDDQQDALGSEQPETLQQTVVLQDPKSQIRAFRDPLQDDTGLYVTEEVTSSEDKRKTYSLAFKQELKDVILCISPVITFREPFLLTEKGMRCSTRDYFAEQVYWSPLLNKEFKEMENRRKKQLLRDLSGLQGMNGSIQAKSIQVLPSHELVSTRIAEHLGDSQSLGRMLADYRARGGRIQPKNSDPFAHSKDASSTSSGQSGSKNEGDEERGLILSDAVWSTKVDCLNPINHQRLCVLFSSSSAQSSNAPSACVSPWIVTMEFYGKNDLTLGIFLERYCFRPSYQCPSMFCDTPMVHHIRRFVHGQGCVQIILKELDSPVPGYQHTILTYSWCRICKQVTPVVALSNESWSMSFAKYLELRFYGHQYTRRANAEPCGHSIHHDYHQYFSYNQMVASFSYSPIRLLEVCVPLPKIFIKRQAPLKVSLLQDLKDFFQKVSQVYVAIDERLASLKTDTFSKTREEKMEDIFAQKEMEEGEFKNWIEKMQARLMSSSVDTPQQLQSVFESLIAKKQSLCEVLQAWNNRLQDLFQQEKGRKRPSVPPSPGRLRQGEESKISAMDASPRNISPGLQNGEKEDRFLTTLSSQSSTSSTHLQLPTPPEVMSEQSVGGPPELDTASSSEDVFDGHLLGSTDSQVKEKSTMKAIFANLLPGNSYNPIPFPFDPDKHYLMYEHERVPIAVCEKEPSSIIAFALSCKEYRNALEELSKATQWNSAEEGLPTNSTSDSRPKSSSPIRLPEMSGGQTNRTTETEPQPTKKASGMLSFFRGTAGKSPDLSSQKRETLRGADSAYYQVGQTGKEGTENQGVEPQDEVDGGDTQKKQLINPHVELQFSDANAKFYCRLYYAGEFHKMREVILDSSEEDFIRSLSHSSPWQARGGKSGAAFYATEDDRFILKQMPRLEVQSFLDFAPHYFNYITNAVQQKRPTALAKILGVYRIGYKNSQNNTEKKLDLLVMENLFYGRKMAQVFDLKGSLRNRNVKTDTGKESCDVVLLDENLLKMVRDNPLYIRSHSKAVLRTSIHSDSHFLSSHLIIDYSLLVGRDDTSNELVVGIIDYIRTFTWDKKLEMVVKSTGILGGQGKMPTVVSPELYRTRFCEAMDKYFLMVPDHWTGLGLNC
T7 sequence (P21127 whole entry): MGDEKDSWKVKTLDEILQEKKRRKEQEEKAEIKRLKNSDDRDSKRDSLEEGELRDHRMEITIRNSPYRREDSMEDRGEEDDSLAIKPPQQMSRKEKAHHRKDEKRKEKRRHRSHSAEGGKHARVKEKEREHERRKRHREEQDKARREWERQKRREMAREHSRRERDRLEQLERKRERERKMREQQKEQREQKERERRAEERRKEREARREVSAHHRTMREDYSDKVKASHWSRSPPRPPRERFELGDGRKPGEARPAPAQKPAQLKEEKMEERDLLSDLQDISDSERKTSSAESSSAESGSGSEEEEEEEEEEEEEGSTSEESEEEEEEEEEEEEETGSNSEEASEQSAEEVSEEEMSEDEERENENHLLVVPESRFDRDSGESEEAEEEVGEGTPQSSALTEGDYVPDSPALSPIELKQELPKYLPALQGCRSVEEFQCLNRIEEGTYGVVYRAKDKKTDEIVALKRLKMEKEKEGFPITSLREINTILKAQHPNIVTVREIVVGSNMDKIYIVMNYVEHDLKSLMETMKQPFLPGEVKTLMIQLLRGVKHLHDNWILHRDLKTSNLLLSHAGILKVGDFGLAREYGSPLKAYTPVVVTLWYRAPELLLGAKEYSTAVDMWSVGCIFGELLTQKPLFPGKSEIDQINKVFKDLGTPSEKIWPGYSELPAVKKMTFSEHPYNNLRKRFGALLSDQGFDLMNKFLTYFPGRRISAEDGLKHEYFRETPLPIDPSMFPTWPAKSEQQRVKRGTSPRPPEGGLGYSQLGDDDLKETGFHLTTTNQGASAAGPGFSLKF

| SMILES | remaining binding at 1 µM [1] [%] | remaining binding at 1 µM [2] [%] | remaining binding at 1 µM [3] [%] | remaining binding at 1 µM ([4]; CSF1R-autoinhibited) [%] | remaining binding at 1 µM ([4]; CSF1R) [%] | remaining binding at 1 µM [5] [%] | remaining binding at 1 µM [6] [%] | remaining binding at 1 µM [7] [%] |
| --- | --- | --- | --- | --- | --- | --- | --- | --- |
| Cc1ccc(C(=O)Nc2ccc(CN3CCN(C)CC3)c(C(F)(F)F)c2)cc1C#Cc1cnc2c(Nc3cnn(C)c3)cccn12 [Example 1, 4-methyl-3-((8-((1-methyl-1H-pyrazol-4-yl)amino)imidazo[1,2-a]pyridin-3-yl)ethynyl)-N-(4-((4-methylpiperazin-1-yl)methyl)-3-(trifluoromethyl)phenyl)benzamide] | 71 | 1 | 0 | 74 | 0 | 92 | 84 | 20 |
| Cc1cn(-c2cc(NC(=O)c3ccc(C)c(C#Cc4cnc5c(Nc6cnn(C)c6)cccn45)c3)cc(C(F)(F)F)c2)cn1 [Example 12, 4-methyl-N-(3-(4-methyl-1H-imidazol-1-yl)-5-(trifluoromethyl)phenyl)-3-((8-((1-methyl-1H-pyrazol-4-yl)amino)imidazo[1,2-a]pyridin-3-yl)ethynyl)benzamide] | 91 | 19 | 8 | 100 | 0 | 90 | 65 | 80 |
| Cc1ccc(NC(=O)C2(C(=O)Nc3ccc(F)cc3)CC2)cc1C#Cc1cnc2c(Nc3cnn(C(C)C)c3)cccn12 [Example 78] | 100 | 100 | 100 | 91 | 2 | 100 | 91 | 100 |
